“Also recorded” adds a separate entry of the source. Read-outs that look alike come from different tables or passages of the source.

The record followed here is patent US20200270216A1, “COMPOSITIONS AND METHODS FOR INHIBITING N-SMASE2” (The Regents of the University of California, priority 2017, published 2020).

One data set has as its target T1, nSMase2 (Mus musculus, UniProt Q9JJY3).
T1 construct: from tissue; host or cells: mouse brain (cortical homogenate)
T1 sequence (Q9JJY3 1-655): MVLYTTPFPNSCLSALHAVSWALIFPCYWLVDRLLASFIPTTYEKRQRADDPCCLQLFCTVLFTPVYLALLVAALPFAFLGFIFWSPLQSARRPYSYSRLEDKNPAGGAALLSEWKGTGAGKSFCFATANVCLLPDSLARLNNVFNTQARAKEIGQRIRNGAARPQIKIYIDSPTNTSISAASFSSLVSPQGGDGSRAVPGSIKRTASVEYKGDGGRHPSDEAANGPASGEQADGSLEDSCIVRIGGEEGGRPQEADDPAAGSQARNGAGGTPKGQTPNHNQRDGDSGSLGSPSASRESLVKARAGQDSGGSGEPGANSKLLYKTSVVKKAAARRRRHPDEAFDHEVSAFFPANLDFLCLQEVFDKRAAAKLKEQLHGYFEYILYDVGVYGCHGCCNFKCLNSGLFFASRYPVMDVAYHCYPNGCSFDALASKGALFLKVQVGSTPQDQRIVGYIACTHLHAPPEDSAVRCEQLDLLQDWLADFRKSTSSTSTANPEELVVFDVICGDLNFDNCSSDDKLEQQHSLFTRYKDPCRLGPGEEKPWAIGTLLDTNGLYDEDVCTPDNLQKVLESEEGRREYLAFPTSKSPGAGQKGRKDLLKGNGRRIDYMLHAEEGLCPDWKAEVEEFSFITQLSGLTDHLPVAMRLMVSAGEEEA
The data set can be described thus: Target engagement: nSMase activity in brain homogenates of treated mice. In kind it is in vivo, C57BL6 mice. As to conditions: 100 mg/kg oral gavage, 4 hours. Here is the method:
Alternatively, mice were treated with the compounds by a parental route and after euthanization the brain is removed and homogenized using 100 mM Tris-HCl pH 7.5, 100 mM sucrose, 100 μM PMSF, 1× protease inhibitor cocktail, and diluted to 2× in reaction buffer prior to the assay and nSMase2 activity is measured. The reaction was started by adding 10 μL of the working solution (100 μM Amplex Red reagent containing 2 U/mL HRP, 0.2 U/mL choline oxidase, 8 U/mL of alkaline phosphatase, and 0.5 mM sphingomyelin) and the progression of the reaction was monitored at 540/590 nm (Ex/Em) for 2 h at 37° C. The activity of nSMase2 at 2 hrs was plotted as percentage of control using PrismGraphPad.
(§1) Brain permeability and target engagement studies were conducted in C57BL/6J mice. […] Drug level evaluation in brain and plasma samples was performed by LC-MS/MS analysis. Brain tissue was homogenized and nSMase2 activity measured as described above.

Data set [1] can be described thus: Pharmacokinetic / brain permeability study, LC-MS/MS of brain and plasma. In kind it is in vivo, C57BL6 mice. As to conditions: C57BL/6J, mouse, mice, 100 mg/kg oral gavage. Here is the method: as §1
Data set [2] relates to P2-seeded tau biosensor cells. The data set can be described thus: EV purification and characterization (immunoblot of exosome markers, nanoparticle tracking analysis). In kind it is cell-based. From the text:
Extracellular vesicles (EVs) were purified from the cell culture medium using Exo-Quick-TC exosome purification kit (SBI, EXOTC10A-1) according to the manufacturing instructions. Immunoblot analysis of the EV fractions was done by 10-20% Tris-Glycine gel in non-reduced conditions, transferred to PVDF membrane and probed with antibodies against CD63 (ThermoFisher, 10628D), followed by HRP-conjugated secondary antibodies. Chemiluminescent signals were obtained with Super Signal West Femto substrate (Thermo Scientific Pierce 34,095) and detected using a BioSpectrum 600 imaging system and quantified using VisionWorks Version 6.6A software (UVP; Upland, Calif.). […] Inhibition of nSMase2 activity in cell extracts of confluent tau biosensors was confirmed by nSMase2 activity assay analogous to the one described in Example 2.
Our analysis confirmed that nSMase2 inhibitors suppress release of EVs from P2-seeded tau biosensor cells. […] EV samples purified from the same number of donor cells were analyzed per each group. Purified EVs were imaged by transmission electron microscopy (FIG. 5C). Size distribution of particles in the samples were assessed by nanoparticle tracking analysis (FIG. 5D). WB analysis for exosome markers also confirmed decrease in the exosome-specific marker expression (FIG. 5E).
Donor cells were grown in medium with exosome-depleted FBS (ThermoFisher, A2720803) for 48 hours with or without compounds, cell culture medium was collected and EVs purified using ExoQuick-TC kit (SBI biosciences). For quality control, small amounts of purified EVs were fixed on a copper mesh in glutaraldehyde/paraformaldehyde solution, stained with 2% uranyl acetate solution and imaged on a JEOL 100CX electron microscope at 29,000 times magnification. […] Chemiluminescent signals were obtained with Super Signal West Femto substrate (Thermo Scientific Pierce 34095) and detected using a BioSpectrum 600 imaging system and quantified using VisionWorks Version 6.6A software (UVP; Upland, Calif.).
On the technique in general: Immunoblotting shows a protein as a band on a membrane.

Turning to `O=c1[nH]c(=S)[nH]c(-c2ccccc2)c1Cc1c(O)ccc2ccccc12` [cambinol], the “inhibition (decrease) of nSMase activity in brain/cortical homogenates vs vehicle” value at nSMase2 was found to be 26.8%. Also, the concentration at 4 h in data set [1] (brain, read-out: level in brain) came out at 135 ± 60.9 ng/g; in data set [1] (plasma, read-out: level in plasma), 8150 ± 2450 ng/mL. In data set [2] (10 μM, 60 hours, Western blot (FIG. 3C)), the “levels of exosomal marker CD63 in cell medium EV fraction” value is “Decrease”. For the same compound, in data set [2] (50 μM, 48 hours, nanoparticle tracking analysis), the “release of EVs from P2-seeded donor cells” value is recorded as “released less EVs; also recorded: more effective than the nSMase2 inhibitor GW4869”.
